Target: T1, sGC α1/β1 heterodimer (Homo sapiens, UniProt Q02108+Q02153)
T1 construct: expressed in transfected cells; host or cells: CHO-K1 (clone #7, CHO-K1/sGC)
T1 sequence (Q02108 1-690): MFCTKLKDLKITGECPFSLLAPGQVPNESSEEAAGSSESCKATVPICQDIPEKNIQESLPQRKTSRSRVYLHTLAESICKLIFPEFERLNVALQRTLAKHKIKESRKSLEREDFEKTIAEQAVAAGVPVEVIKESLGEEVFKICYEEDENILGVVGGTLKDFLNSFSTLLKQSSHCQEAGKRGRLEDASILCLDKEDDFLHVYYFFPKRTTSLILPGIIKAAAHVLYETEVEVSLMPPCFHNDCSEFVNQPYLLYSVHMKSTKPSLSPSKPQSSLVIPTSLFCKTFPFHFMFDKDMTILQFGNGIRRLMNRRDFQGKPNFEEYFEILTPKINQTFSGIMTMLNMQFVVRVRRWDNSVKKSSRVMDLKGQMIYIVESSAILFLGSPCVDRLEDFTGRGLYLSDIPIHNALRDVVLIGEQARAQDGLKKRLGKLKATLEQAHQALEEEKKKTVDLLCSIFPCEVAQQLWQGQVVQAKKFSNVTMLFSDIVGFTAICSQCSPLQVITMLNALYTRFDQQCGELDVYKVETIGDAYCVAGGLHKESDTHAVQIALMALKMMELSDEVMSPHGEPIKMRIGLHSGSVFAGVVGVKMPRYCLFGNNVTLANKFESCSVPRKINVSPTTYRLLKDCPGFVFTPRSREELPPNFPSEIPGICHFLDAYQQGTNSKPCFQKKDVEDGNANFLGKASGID
T1 sequence (Q02153 1-619): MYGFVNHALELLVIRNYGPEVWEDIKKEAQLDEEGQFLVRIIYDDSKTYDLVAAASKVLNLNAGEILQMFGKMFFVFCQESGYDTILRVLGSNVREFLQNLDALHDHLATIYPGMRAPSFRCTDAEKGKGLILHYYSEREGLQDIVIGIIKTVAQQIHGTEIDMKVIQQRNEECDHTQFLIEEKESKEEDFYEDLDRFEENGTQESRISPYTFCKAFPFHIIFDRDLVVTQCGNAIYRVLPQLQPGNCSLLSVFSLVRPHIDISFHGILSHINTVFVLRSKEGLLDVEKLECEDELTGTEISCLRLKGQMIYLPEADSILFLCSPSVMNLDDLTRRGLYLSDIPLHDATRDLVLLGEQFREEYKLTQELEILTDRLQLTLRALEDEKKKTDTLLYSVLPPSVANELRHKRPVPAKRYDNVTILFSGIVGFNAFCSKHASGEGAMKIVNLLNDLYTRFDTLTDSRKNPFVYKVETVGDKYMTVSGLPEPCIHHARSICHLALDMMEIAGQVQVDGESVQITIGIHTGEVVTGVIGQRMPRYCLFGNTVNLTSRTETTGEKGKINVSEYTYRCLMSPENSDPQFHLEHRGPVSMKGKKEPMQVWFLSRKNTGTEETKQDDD
Experiment: Cell-Based sGC Functional Assay (CASA Assay), cGMP by HTRF in CHO-K1/sGC cells
Conditions: for Emax: CHO-K1, percent activation relative to maximum cGMP production of Compound A (= 100%), read-out: % Act.; for EC50: cGMP production, 1 hr at 37° C., 4P fit, presence or absence of 1 μM DETA-NO not given, read-out: IP (nM) (inflection point)
Description: Biological Assay 1: Cell-Based sGC Functional Assay (CASA Assay)
sGC is a heme-containing enzyme that converts GTP to secondary messenger cGMP. Increases in cGMP levels affect several physiological processes including vasorelaxation through multiple downstream pathways. […] Heme-dependent activators (HDAs) preferentially activate sGC containing a ferrous heme group. To determine the effect of sGC activators on enzyme activity, the CASA assay was developed to monitor the generation of cGMP in a cell line that stably expresses the heterodimeric sGC protein.
A CHO-K1 cell line stably expressing the sGC α1/β1 heterodimer was generated using a standard transfection protocol. CHO-K1 cells were transfected with plasmids pIREShyghsGCα1 and pIRESneo-hsGCβ1 simultaneously using FUGENE reagent. Clones that stably express both subunits were selected with hygromycin and neomycin for ˜2 weeks. Clone #7 was chosen for the assay and was designated CHO-K1/sGC. CHO-K1/sGC cells were maintained in F-K12 medium containing 10% heat-inactivated Fetal Bovine Serum (FBS), 100 μg/mL penicillin/streptomycin, 0.5 mg/mL hygromycin and 0.25 mg/mL G418. The cells were then cryopreserved in LN2. On the day of the assay, cells were thawed and resuspended in EBSS Assay Buffer (Sigma, E3024) supplemented with 5 mM MgCl2, 10 mM HEPES (4-(2-hydroxyethyl)piperazine-1-ethanesulfonic acid) and 0.05% BSA (bovine serum albumin) (EAB) and cell density was then adjusted to 4×10^5/mL with EAB. IBMX (3-isobutyl-1-methylxanthin, 0.5 mM) was added to inhibit degradation of cGMP. Compounds were diluted from DMSO stock solutions and added to the assay at a final DMSO concentration of 2.5%. Cells were incubated with compounds in the presence and absence of 1 μM of Diethylenetriamine/nitric oxide adduct (DETA-NO; Sigma, 17018) for 1 hr at 37° C. At the end of the incubation period, the reaction was terminated and the cells were lysed with the detection reagents from Cisbio Kits. The level of intracellular cGMP was determined using an HTRF-based assay kit (CisBio, 62GM2PEC), which detects the displacement of a fluorescence labeled cGMP from its specific antibody. The cGMP produced by test compounds was directly compared to the maximum cGMP production (this value was set to equal 100% activation.) of the published sGC-HDA Compound A:
[drawing 175] (Example 1 in WO 2010/065275, published Jun. 10, 2010). The test compounds' activities were then expressed as a percentage of Compound A, the standard in every experiment. This percent activation was calculated either in the presence or absence of DETA-NO which was then plotted. IP and maximum fold induction was derived using ADA analysis software for 4P fit.
The compounds in the Examples of the instant invention had inflection points (IP) less than or equal to 10 μM and most less than or equal to about 1 μM.

| SMILES | Emax [%] | EC50 [nM] |
| --- | --- | --- |
| O=C1Nc2nc(-c3cn4ccnc4c(CCCC(F)(F)F)n3)ncc2C1(c1ccc(Cl)c(F)c1)C1CC1 (stereo not shown) [Example 48A, 5-(4-chloro-3-fluorophenyl)-5-cyclopropyl-2-(8-(4,4,4-trifluorobutyl)imidazo[1,2-a]pyrazin-6-yl)-5H-pyrrolo[2,3-d]pyrimidin-6(7H)-one] | 130 | 24 |
| CCCCc1nc(-c2ncc3c(n2)NC(=O)C3(c2ccc(OC(F)(F)F)cc2)C2CC2)cn2ccnc12 (stereo not shown) [Example 51A, 2-(8-butylimidazo[1,2-a]pyrazin-6-yl)-5-cyclopropyl-5-(4-(trifluoromethoxy)phenyl)-5H-pyrrolo[2,3-d]pyrimidin-6(7H)-one] | 98 | 56 |
| O=C1Nc2nc(-c3cn4ccnc4c(CCC(F)(F)C(F)(F)F)n3)ncc2C1(c1ccc(F)cn1)C1CC1 (stereo not shown) [Example 53A, 5-cyclopropyl-5-(5-fluoropyridin-2-yl)-2-(8-(3,3,4,4,4-pentafluorobutyl)imidazo[1,2-a]pyrazin-6-yl)-5H-pyrrolo[2,3-d]pyrimidin-6(7H)-one] | 125 | 220 |
| CCCc1nc(-c2ncc3c(n2)NC(=O)C3(C)c2ccc(Cl)cn2)cn2ccnc12 (stereo not shown) [Example 57A, 5-(5-chloropyridin-2-yl)-5-methyl-2-(8-propylimidazo[1,2-a]pyrazin-6-yl)-5H-pyrrolo[2,3-d]pyrimidin-6(7H)-one] | 90 | 981 |
| CC1(c2ccc(Cl)cn2)C(=O)Nc2nc(-c3cn4ccnc4c(CC4CCC4)n3)ncc21 (stereo not shown) [Example 58A, 5-(5-chloropyridin-2-yl)-2-(8-(cyclobutylmethyl)imidazo[1,2-a]pyrazin-6-yl)-5-methyl-5H-pyrrolo[2,3-d]pyrimidin-6(7H)-one] | 150 | 81 |
| O=C1Nc2nc(-c3cn4ccnc4c(CCCC(F)(F)F)n3)ncc2C1(c1ccc(F)cc1)C1CC1 (stereo not shown) [Example 60B, 5-cyclopropyl-5-(4-fluorophenyl)-2-(8-(4,4,4-trifluorobutyl)imidazo[1,2-a]pyrazin-6-yl)-5H-pyrrolo[2,3-d]pyrimidin-6(7H)-one] | 126 | 30 |
| CC1(c2ccc(Cl)cc2)C(=O)Nc2nc(-c3cn4ccnc4c(CCC(F)(F)F)n3)ncc21 (stereo not shown) [Example 61A, 5-(4-chlorophenyl)-5-methyl-2-(8-(3,3,3-trifluoropropyl)imidazo[1,2-a]pyrazin-6-yl)-5H-pyrrolo[2,3-d]pyrimidin-6(7H)-one] | 104 | 401 |
| CC1(c2ccc(F)cc2)C(=O)Nc2nc(-c3cn4ccnc4c(CC4CCC4)n3)ncc21 (stereo not shown) [Example 63A, 2-(8-(cyclobutylmethyl)imidazo[1,2-a]pyrazin-6-yl)-5-(4-fluorophenyl)-5-methyl-5H-pyrrolo[2,3-d]pyrimidin-6(7H)-one] | 107 | 10 |
| CC1(c2ccc(F)cn2)C(=O)Nc2nc(-c3cn4ccnc4c(CCC(F)(F)C(F)(F)F)n3)nc(C3CC3)c21 (stereo not shown) [Example 71B, 4-Cyclopropyl-5-(5-fluoropyridin-2-yl)-5-methyl-2-(8-(3,3,4,4,4-pentafluorobutyl)imidazo[1,2-a]pyrazin-6-yl)-5H-pyrrolo[2,3-d]pyrimidin-6(7H)-one] | 135 | 23 |
| CCCCc1nc(-c2nc3c(c(C4CC4)n2)C(C)(c2ccc(F)cn2)C(=O)N3)cn2ccnc12 (stereo not shown) [Example 72B, 2-(8-butylimidazo[1,2-a]pyrazin-6-yl)-4-cyclopropyl-5-(5-fluoropyridin-2-yl)-5-methyl-5H-pyrrolo[2,3-d]pyrimidin-6(7H)-one] | 179 | 81 |
| CC1(c2ccc(F)cn2)C(=O)Nc2nc(-c3cn4ccnc4c(CCCC(F)(F)F)n3)nc(C3CC3)c21 (stereo not shown) [Example 73B, 4-cyclopropyl-5-(5-fluoropyridin-2-yl)-5-methyl-2-(8-(4,4,4-trifluorobutyl)imidazo[1,2-a]pyrazin-6-yl)-5H-pyrrolo[2,3-d]pyrimidin-6(7H)-one] | 125 | 18 |
| CC1(c2ccc(Cl)cc2)C(=O)Nc2nc(-c3cn4ccnc4c(CCC(F)(F)F)n3)nc(C3CC3)c21 (stereo not shown) [Example 74A, 5-(4-chlorophenyl)-4-cyclopropyl-5-methyl-2-(8-(3,3,3-trifluoropropyl)imidazo[1,2-a]pyrazin-6-yl)-5H-pyrrolo[2,3-d]pyrimidin-6(7H)-one] | 165 | 124 |
| CC1(c2ccc(F)cc2)C(=O)Nc2nc(-c3cn4ccnc4c(CCC(F)(F)C(F)(F)F)n3)nc(C3CC3)c21 (stereo not shown) [Example 75A, 4-cyclopropyl-5-(4-fluorophenyl)-5-methyl-2-(8-(3,3,4,4,4-pentafluorobutyl)imidazo [1,2-a]pyrazin-6-yl)-5H-pyrrolo[2,3-d]pyrimidin-6(7H)-one] | 166 | 72 |
| CCc1nc(-c2cn3ccnc3c(CCC(F)(F)C(F)(F)F)n2)nc2c1C(C)(c1ccc(F)cc1)C(=O)N2 (stereo not shown) [Example 76A, 4-ethyl-5-(4-fluorophenyl)-5-methyl-2-(8-(3,3,4,4,4-pentafluorobutyl)imidazo [1,2-a]pyrazin-6-yl)-5H-pyrrolo[2,3-d]pyrimidin-6(7H)-one] | 130 | 95 |
| Cc1nc(-c2cn3ccnc3c(CCC(F)(F)C(F)(F)F)n2)nc2c1C(C)(c1ccc(F)cc1)C(=O)N2 (stereo not shown) [Example 77A, 5-(4-fluorophenyl)-4,5-dimethyl-2-(8-(3,3,4,4,4-pentafluorobutyl)imidazo [1,2-a]pyrazin-6-yl)-5H-pyrrolo[2,3-d]pyrimidin-6(7H)-one] | 117 | 170 |
| CCCCc1nc(-c2nc(O)c3c(n2)NC(=O)C3(C)c2ccc(F)cc2)cn2ccnc12 (stereo not shown) [Example 79A, 2-(8-Butylimidazo[1,2-a]pyrazin-6-yl)-5-(4-fluorophenyl)-4-hydroxy-5-methyl-5H-pyrrolo[2,3-d]pyrimidin-6(7H)-one] | 100 | 133 |
| CC1(c2ccc(F)cc2)C(=O)Nc2nc(-c3cn4ccnc4c(Cc4ccc(F)cc4)n3)ncc21 (stereo not shown) [Example 80A, 2-(8-(4-fluorobenzyl)imidazo[1,2-a]pyrazin-6-yl)-5-(4-fluorophenyl)-5-methyl-5H-pyrrolo[2,3-d]pyrimidin-6(7H)-one] | 111 | 122 |

Source: patent publication US10213429B2, “Imidazo-pyrazinyl derivatives useful as soluble guanylate cyclase activators” (Merck Sharp & Dohme Corp., priority 2015, dated 2019)
